In patent EP4609859A1, “INHIBITORS OF THE GENE SMPD1 FOR THE TREATMENT OF SPINAL MUSCULAR ATROPHY” (Universidad Pablo de Olavide, priority 2024, dated 2025):

What was measured:
nematode development = experiment: Visible effect of drug treatment on nematode development; format: in vivo, C. elegans; settings: at the concentrations tested in the SMN-1 assay
Experimental: (§1) RNAi feeding was performed as described (Kamath and Ahringer, 2003). RNAi clones belong to the Aringher gene library were used: JA:C41G7.1 (smn-1), JA:T18D3.7 (tsct-1), JA:WO3G1.7 (asm-3), JA:C07A12.7 (C07A12.7), JA:C10E2.3 (hda-4), JA:K09A9.4 (usp-33), JA:R01B10.1 (cpi-2), JA:K08B4.6 (cpi-1), JA:K06A4.3 (gsnl-1), JA:F23H11.4 (F23H11.4), JA:T18H9.7 (pacs-1), JA:C41G7.1 (smn-1) and MV_SV: mv_ZK455.4 (asm-2) from Marc Vidal's gene library (Kim et al., 2005). For smn-1 expression assays, gravid hermaphrodites were transferred to empty plasmid pL4440 or RNAi plates, incubated at 20°C for 48 hours and the next generation was analyzed at the L4 stage. For the drug assay, NGM plates were prepared at the indicated concentrations and the respective vehicle was used as a control, then proceeded as in the RNAi assay.

SMN protein [1] = experiment: Western blot of SMN in human SMA patient fibroblasts; format: cell-based; settings: SMAII and SMAI fibroblasts, 5µM, 10µM, or 25µM, 24 h
Experimental: Fibroblasts were maintained in Eagle's Minimum Essential Medium (MEM) (Sigma) supplemented with 15% (v/v) non-inactivated fetal bovine serum (FBS) (Gibco), 0.5M of L-Glutamine (Gibco), 1% (v/v) non-essential amino acids, and 20µg/ml of Penicillin-Streptomycin (Gibco). For western blot analysis, cells were plated at 3,000-4,000 cells/cm2 in 35mm dishes and cultured in supplemented MEM for 24 h. For immunofluorescence experiments, 3,000 cells/well were plated in collagen-coated 1cm2 glass coverslips placed into four-well dishes and fixed in 4% paraformaldehyde (Sigma) in PBS.
Western blots were performed as previously described (Gou-Fabregas et al., 2009). Cell lysates were resolved in sodium dodecyl-sulfate polyacrylamide (SDS-PAGE) gels and transferred onto polyvinylidene difluoride (PVDF) Immobilon-P transfer membranes (Millipore, Burlington, MA, USA) using an Amersham Biosciences semidry Trans-Blot (Buckinghamshire, UK). Membranes were blotted with: anti-SMN (1: 5,000, Cat. No. 610646, BD Transduction Laboratories, Franklin Lakes, NJ, USA) and anti-SMPD1 (1: 300, Cat. No. 14609-1-AP, ProteinTech, Manchester, UK). To control the specific protein content per lane, membranes were reproved with anti-α-tubulin antibody (1: 50,000, Cat. No. T5168, Sigma). […]

SMN-1 = SMN-1 level by head fluorescence in C. elegans strain mCherry::smn-1 (PHX2635) after drug treatment; format: in vivo; settings: for level of SMN-1, repeated experiments on different days: Fig. 11, vs non-treated animals
Source text: C. elegans strains were cultivated under standard conditions (Stiernagle, 2006). The strains used are as follows: PHX2635: smn-1(syb2635); BN1158: bqSi1152[pBN521(unc-119(+) eft-3p::Frt::mCh::his-58::Frt::UPRT)]II; bqSi577[pBN306(unc-119(+) myo-2p::GFP)] IV. unc-119(ed9)III . The Escherichia coli strains used were: OP50 and HT115.
The strain PHX2635: smn-1(syb2635) was generated by CRISPR technology, we introduced the coding sequence of the fluorescent protein m-Cherry upstream of the TAA stop codon of the C. elegans SMN1 homologous gene, smn-1, as indicated in the sequence: [formula]
as §1, with “For smn-1 expression assays, gravid hermaphrodites were transferred to empty plasmid pL4440 or RNAi plates, incubated at 20°C for 48 hours and the next generation was analyzed at the L4 stage.” left out
L4 worms were mounted in a coverslip with a 2% agarose pad. C. elegans confocal images were acquired using a Nikon A1R microscope equipped with a 60x Plan Apo lens of Numerical Aperture 1.4. Twelve pictures were taken for each worm to be integrated in a Z image. […] Laser intensity, gain and pixel scan speed remained constant along all sets of experiments.
For image analysis, we used FIJI software. The experimentalist drew manually a ROI containing between the second pharynx bulb and the mouth of the nematode. Within this area, mCherry expression was detected using an intensity threshold that remained constant along all images. This minimum intensity level was defined by the experimenter. Within the thresholded volume, we measured the integrated density using the plugin 3D object counter (Bolte and Cordelières, 2006). […]

SMN protein [2] = experiment: Western blot of SMN in iPSC-differentiated human SMA MNs; format: cell-based; settings: remaining doses of 5µM, 10µM, 20µM in SMAI and SMAII MNs, 24 h
Source text: (§2) Three human iPSCs lines were used in the present work. The GM23411*B (Coriell Institute) iPSC cell line obtained from a healthy […] individual was used as control. The GM23240*B (Coriell Institute) iPSCs obtained from a fibroblast cell line of a […] SMA type 2 patient (2 copies SMN2; deletion exon7-8 in SMN1) was used as SMAII condition. SMAII patient was previously classified as SMA type 1, but several data supported re-classification to SMA type 2. The CS84iSMA-nxx (Cedar Sinai, Los Angeles, USA) iPSCs obtained from a lymphoblast cell line of a […] SMA type 1 patient (2 copies SMN2; deletion exon7-8 in SMN1) was used as SMAI condition.
Human iPSCs were differentiated to MNs as previously described (de la Fuente et al., 2020; Du et al., 2015). Cell lines were cultured and expanded on Geltrex (Sigma)-coated plates in Essential 8 medium (Gibco). Neuroepithelial cells and MN progenitors were generated following the established protocol. To induce MN differentiation, MN progenitors were detached with Accutase (Gibco) and cultured in suspension in MN induction medium (DMEM/F12: NBM plus 1:1 supplemented with B27, L-glutamine [all from Gibco], 0.1mM ascorbic acid [Sigma], 3µM CHIR99021; 2µM SB431512, 2µM DMH1 [all from Cayman, Ann Harbor, MI, USA], 0.5µM retinoic acid [Sigma], and 0.1µM purmorphamine [Cayman]). […]

SMPD1 [3] = target: T1, SMPD1 (Homo sapiens, UniProt P17405); experiment: Immunofluorescence (CTCF) of SMPD1 in differentiated human SMA MNs; format: cell-based; settings: SMAI MNs, 10µM, 24 h; untreated 126.7±5.74; p<0.0001
T1 construct: host or cells: human SMA type 2 patient fibroblasts (SMAII)
T1 sequence (P17405 47-631): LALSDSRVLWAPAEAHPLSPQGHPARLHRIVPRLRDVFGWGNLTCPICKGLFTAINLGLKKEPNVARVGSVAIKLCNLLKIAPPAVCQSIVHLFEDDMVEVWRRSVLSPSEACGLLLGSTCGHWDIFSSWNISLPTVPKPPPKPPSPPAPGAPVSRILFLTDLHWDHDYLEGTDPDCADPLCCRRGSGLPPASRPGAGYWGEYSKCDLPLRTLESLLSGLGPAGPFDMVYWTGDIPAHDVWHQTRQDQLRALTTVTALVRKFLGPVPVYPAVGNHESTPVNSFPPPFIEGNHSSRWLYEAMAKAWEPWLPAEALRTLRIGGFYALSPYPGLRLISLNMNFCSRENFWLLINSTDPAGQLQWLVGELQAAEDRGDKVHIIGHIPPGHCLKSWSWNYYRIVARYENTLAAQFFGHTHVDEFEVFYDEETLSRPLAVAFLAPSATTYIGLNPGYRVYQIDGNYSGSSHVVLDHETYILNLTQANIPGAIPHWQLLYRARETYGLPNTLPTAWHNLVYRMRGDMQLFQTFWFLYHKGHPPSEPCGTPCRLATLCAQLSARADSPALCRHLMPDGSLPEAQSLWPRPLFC
Source text: as §2, with “SMAI condition. […]” for “SMAI condition.”
(§3) Cultured cells were fixed with 4% paraformaldehyde (Sigma) for 10 min and cold methanol (Sigma) for 30 min more. […] Quantification of fluorescence intensity was performed blinded, using the NIH ImageJ software (Schindelin et al., 2012). Using phase contrast images, the cell perimeter was manually delimited and transferred to the corresponding fluorescence images. The Integrated Density (IntDen) was measured in the selected area of the cell. Three non-fluorescent surrounding regions were measured to set up the background readings. The fluorescence intensity was calculated using the following formula: Corrected Total Cell Fluorescence (CTCF) = IntDen (sum of the values of the pixels in the selection) - (area of the cell x mean fluorescence of the background).

SMPD1 [4] = target: T1, SMPD1; experiment: Immunofluorescence (CTCF) of SMPD1 in human SMA fibroblasts; format: cell-based; settings: SMAII fibroblasts, 20µM, 24 h; untreated 105.8±5.64; p<0.0001
Experimental: Two human fibroblasts cell lines from SMA patients (GM03813, SMA type 2 patient, SMAII; and GM09677, SMA type 1 patient, SMAI) and one healthy control (GM03814, Control) were obtained and cultured following the manufacturer instructions. Fibroblasts were maintained in Eagle's Minimum Essential Medium (MEM) (Sigma) supplemented with 15% (v/v) non-inactivated fetal bovine serum (FBS) (Gibco), […] of L-Glutamine (Gibco), 1% (v/v) non-essential amino acids, and 20µg/ml of Penicillin-Streptomycin (Gibco). For western blot analysis, cells were plated at 3,000-4,000 cells/cm2 in 35mm dishes and cultured in supplemented MEM for 24 h. […]
as §3

| Compound | visible effect on nematode development (nematode development) | SMN protein level (SMN protein [1]) | SMN-1 level after treatment exclusively during the adult stage (SMN-1; 100 µM, 48 hours, started at adulthood, vs untreated) | level of SMN-1, repeated experiments on different days (SMN-1; 100 µM) | SMN protein compared to untreated control (SMN protein [2]) | SMPD1 relative fluorescence in cell soma (CTCF) (SMPD1 [3]) | SMPD1 relative fluorescence in cell soma (CTCF) (SMPD1 [4]) | level of SMN-1, repeated experiments on different days (SMN-1; 500 µM) |
| --- | --- | --- | --- | --- | --- | --- | --- | --- |
| CCOC(=O)C1=C(COCCN)NC(C)=C(C(=O)OC)C1c1ccccc1Cl (stereo not shown) [amlodipine] | delay in nematode development | – | – | – | – | – | – | – |
| CN(C)CCCN1c2ccccc2CCc2ccc(Cl)cc21 [clomipramine] | did not show a visible negative effect | did not increase SMN protein level | significant increase | statistically significant increase | No significant differences | 91.62±3.64 | 56.59±4.03 | – |
| CNCCCN1c2ccccc2CCc2ccccc21 [desipramine] | delay in nematode development | – | – | – | – | – | – | statistically significant increase |
